Source: US10912780B2, “Heterocyclic compounds useful as anti-bacterial agents and method for production thereof” (Bugworks Research, Inc., priority 2017, dated 2021)
Converted amounts (≈) assume the structure as drawn. “And” between values parts separate entries of the source, which are not always exact repeats. Equal values may be shown once.

What was measured:
E. coli topoisomerase IV = E. coli topoisomerase IV (Escherichia coli, UniProt P0AFI2+P20083); experiment: biochemical; settings: decatenation assay; read-out: E. coli Topo IV IC50
E. coli topoisomerase IV, sequence (P20083 whole entry): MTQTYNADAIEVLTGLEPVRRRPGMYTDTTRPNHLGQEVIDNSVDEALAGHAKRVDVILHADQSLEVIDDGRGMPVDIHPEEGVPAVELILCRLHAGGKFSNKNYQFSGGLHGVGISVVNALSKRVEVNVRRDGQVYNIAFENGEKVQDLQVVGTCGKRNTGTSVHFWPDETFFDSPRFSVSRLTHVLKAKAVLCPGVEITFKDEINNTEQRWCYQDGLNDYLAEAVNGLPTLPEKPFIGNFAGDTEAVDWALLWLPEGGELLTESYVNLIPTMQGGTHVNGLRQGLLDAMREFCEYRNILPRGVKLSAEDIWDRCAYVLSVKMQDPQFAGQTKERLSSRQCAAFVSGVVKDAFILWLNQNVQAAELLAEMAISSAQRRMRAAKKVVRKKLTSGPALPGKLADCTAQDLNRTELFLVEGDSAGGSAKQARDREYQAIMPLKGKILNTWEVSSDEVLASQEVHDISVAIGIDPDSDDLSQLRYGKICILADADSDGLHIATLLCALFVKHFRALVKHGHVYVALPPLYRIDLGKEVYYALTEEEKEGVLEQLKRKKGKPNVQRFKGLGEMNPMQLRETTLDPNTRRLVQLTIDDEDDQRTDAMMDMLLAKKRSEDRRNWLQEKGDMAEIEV
E. coli topoisomerase IV, sequence (P0AFI2 whole entry): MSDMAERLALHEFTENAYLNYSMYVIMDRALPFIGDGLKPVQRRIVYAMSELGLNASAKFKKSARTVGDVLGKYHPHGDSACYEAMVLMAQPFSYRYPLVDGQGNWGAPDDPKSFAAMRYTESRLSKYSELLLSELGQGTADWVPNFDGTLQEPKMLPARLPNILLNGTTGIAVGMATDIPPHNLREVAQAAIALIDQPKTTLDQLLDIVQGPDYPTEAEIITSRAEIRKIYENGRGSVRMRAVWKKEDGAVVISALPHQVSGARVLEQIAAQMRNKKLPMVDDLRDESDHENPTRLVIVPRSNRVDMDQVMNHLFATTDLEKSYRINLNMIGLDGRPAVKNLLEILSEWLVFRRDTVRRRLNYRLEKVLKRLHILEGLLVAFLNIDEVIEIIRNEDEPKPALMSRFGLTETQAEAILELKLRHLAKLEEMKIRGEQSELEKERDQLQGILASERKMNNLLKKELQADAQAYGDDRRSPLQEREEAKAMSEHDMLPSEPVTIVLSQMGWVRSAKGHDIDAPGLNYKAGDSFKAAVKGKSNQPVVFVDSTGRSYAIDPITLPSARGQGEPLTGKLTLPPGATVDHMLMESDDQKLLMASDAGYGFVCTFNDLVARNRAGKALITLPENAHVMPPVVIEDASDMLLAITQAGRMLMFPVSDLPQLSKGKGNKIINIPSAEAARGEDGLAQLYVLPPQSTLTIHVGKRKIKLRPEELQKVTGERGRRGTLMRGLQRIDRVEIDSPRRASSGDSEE

[1] = test system: Escherichia coli ATCC 25922; experiment: Minimum Inhibitory Concentration (MIC) in LB media; format: cell-based; settings: Escherichia coli, ATCC25922, read-out: Minimum Inhibitory Concentration E. coli ATCC 25922
From the text: (§1) The compounds of Formula (I) are of interest due to their potent antibacterial effects. The ability of the invention compounds disclosed herein to achieve an antibacterial effect may be evaluated with regard to their ability to inhibit the growth of bacterial species like Escherichia coli ATCC 25922, Staphylococcus aureus ATCC 29213, Klebsiella pneumoniae ATCC 13883, Acinetobacter baumannii ATCC 19606, Pseudomonas aeruginosa ATCC 27853, Enterococcus faecalis ATCC 29212 and Enterococcus faecalis ATCC 29212 using an assay based on the following Minimum Inhibitory Concentration (MIC) protocol:
(§2) The medium sterility is checked by incubating at 37° C. for a period of 48 h.
(§3) Bacterial cultures that are stored as glycerol stocks at −80° C. are sub cultured on LB agar plates to obtain isolated colonies. A single colony of each strain is cultured in LB broth. The cultures are incubated at 37 C, 200 rpm till they reach an optical density (OD at 600 nm) of 0.8 to 1. […] Test compounds are dissolved in dimethyl sulfoxide (DMSO) to a stock concentration of 4 mg/ml. A twofold dilution series of this DMSO stock is prepared in a 96 well V bottom microtitre plate from rows A to H. A 3 μL volume of these dilutions are transferred to a 96-well flat bottom microtitre assay plate. Controls to monitor the effects of DMSO and media sterility are included. Each well is inoculated with 150 μL of the above diluted culture. The plates are incubated at 37° C. overnight in a humidified incubator. The following morning, the plates are read using a Spectrophotometer at 600 nm wavelength. […] The antibacterial activity (MIC) determined against representative Gram positive (S. aureus, E. faecalis) and Gram negative (E.coli, -P. aeruginosa and A. baumannii) pathogen were reported Table 1.

[2] = test system: Staphylococcus aureus ATCC 29213; experiment: Minimum Inhibitory Concentration (MIC) in LB media; format: cell-based; settings: Staphylococcus aureus, ATCC29213, read-out: Minimum Inhibitory Concentration S. aureus ATCC 29213
From the text: as §1, §2, §3

[3] = test system: Pseudomonas aeruginosa ATCC 27853; experiment: Minimum Inhibitory Concentration (MIC) in LB media; format: cell-based; settings: Pseudomonas aeruginosa, ATCC27853, read-out: Minimum Inhibitory Concentration P. aeruginosa ATCC 27853
From the text: as §1, §2, §3

[4] = test system: Klebsiella pneumoniae ATCC 13883; experiment: Minimum Inhibitory Concentration (MIC) in LB media; format: cell-based; settings: Klebsiella pneumoniae, ATCC13883, read-out: Minimum Inhibitory Concentration K. pneumoniae ATCC 13883
From the text: as §1, §2, §3

[5] = test system: Enterococcus faecalis ATCC 29212; experiment: Minimum Inhibitory Concentration (MIC) in LB media; format: cell-based; settings: Enterococcus faecalis, ATCC29212, read-out: Minimum Inhibitory Concentration E. faecalis ATCC 29212
From the text: as §1, §2, §3

E. coli DNA gyrase = E. coli DNA gyrase (Escherichia coli, UniProt P0AES4+P0AES6); experiment: biochemical; settings: supercoiling assay
E. coli DNA gyrase, sequence (P0AES4 whole entry, one chain of several): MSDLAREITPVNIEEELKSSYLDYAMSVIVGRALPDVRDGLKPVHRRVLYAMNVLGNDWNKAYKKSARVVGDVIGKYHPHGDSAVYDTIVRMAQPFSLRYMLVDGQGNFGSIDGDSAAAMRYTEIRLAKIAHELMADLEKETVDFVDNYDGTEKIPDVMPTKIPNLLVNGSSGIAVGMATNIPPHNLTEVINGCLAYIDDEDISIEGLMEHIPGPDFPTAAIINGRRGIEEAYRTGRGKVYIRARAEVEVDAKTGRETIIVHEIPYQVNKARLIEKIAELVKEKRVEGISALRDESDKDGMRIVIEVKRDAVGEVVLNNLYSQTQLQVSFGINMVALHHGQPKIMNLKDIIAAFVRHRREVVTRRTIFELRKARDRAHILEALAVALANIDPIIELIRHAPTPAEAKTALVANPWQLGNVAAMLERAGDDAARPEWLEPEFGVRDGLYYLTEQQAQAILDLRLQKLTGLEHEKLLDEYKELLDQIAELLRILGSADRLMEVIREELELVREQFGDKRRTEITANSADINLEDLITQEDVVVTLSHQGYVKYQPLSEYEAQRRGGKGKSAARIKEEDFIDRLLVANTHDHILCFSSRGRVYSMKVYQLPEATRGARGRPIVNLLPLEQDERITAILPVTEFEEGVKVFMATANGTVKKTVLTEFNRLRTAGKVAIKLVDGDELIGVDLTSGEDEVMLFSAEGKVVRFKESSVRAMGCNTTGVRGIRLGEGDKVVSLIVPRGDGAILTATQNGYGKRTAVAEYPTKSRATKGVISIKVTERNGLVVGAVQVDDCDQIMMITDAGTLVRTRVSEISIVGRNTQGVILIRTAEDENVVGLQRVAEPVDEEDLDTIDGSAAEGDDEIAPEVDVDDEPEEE

[6] = target: T1, human ether a go-go related gene (hERG) K+ channel (Homo sapiens, UniProt Q12809); experiment: hERG inhibition assay, QPatch HTX automated electrophysiology; format: cell-based; settings: CHO cell line stably expressing hERG, whole-cell patch clamp, maximum test concentration 300 μM
T1 construct: Chinese Hamster Ovary cell line stably expressing the full-length hERG potassium channel; expressed in transfected cells
T1 sequence (Q12809 whole entry): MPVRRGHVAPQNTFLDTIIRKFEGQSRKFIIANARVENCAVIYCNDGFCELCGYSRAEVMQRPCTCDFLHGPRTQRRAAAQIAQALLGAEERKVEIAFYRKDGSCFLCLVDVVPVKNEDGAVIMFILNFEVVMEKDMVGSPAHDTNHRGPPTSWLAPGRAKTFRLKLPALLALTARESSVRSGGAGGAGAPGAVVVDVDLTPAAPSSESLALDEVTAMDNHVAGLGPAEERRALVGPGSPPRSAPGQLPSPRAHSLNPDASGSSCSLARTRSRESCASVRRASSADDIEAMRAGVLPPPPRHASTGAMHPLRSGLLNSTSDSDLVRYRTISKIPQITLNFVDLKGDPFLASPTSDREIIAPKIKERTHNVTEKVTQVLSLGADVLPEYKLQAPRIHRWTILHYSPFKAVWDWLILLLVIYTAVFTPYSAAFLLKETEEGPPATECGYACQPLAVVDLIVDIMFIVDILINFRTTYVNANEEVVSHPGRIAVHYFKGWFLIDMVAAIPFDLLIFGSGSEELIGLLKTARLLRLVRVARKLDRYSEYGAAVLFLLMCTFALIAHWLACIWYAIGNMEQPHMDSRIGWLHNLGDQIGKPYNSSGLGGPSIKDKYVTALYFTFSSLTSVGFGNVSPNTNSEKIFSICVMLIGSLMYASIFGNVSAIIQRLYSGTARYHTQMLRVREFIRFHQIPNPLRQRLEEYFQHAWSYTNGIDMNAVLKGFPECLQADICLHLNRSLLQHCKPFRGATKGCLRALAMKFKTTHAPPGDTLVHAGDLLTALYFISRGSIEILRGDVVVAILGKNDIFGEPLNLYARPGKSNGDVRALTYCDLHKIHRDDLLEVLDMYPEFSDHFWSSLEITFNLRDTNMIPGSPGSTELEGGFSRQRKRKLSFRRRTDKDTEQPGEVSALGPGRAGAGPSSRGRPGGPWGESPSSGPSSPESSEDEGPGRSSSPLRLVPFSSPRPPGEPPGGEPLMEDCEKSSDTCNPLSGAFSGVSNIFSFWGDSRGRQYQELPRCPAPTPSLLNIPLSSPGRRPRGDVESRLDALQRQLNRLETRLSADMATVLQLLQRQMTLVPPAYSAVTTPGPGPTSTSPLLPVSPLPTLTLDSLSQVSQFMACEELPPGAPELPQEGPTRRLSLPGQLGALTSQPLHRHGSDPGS
Method: The compounds were tested for inhibition of the human ether a go-go related gene (hERG) K+ channel using QPatch HTX automated electrophysiology.
Compounds were solubilised to 100 mM in DMSO before dilution in HBPS to 300 μM.
Electrophysiological recordings were made from a Chinese Hamster Ovary cell line stably expressing the full-length hERG potassium channel. Single cell ionic currents were measured in whole-cell patch clamp configuration at room temperature (21-23° C.) using the QPatch HTX platform (Sophion). Intracellular solution contained (mM): 120 KF, 20 KCl, 10 EGTA, 10 HEPES and was buffered to pH 7.3. […] Cells were clamped at a holding potential of −80 mV. […] This sweep was repeated 10 times at 10 s intervals. hERG currents were measured from the tail step and referenced to the holding current. Compounds were then incubated for 2 minutes prior to a second measurement of ion channel current using an identical pulse train.

[7] = test system: Acinetobacter baumannii ATCC 19606; experiment: Minimum Inhibitory Concentration (MIC) in LB media; format: cell-based; settings: Acinetobacter baumannii, ATCC19606;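 note: twofold compound dilutions from DMSO stocks in LB broth microplates, overnight incubation at 37 °C, growth read by absorbance at 600 nm, with DMSO and sterility controls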
Method: Bacterial cultures that are stored as glycerol stocks at −80° C. are sub cultured on LB agar plates to obtain isolated colonies. A single colony of each strain is cultured in LB broth. […] Test compounds are dissolved in dimethyl sulfoxide (DMSO) to a stock concentration of 4 mg/ml. A twofold dilution series of this DMSO stock is prepared in a 96 well V bottom microtitre plate from rows A to H. A 3 μL volume of these dilutions are transferred to a 96-well flat bottom microtitre assay plate. Controls to monitor the effects of DMSO and media sterility are included. Each well is inoculated with 150 μL of the above diluted culture. The plates are incubated at 37° C. overnight in a humidified incubator. The following morning, the plates are read using a Spectrophotometer at 600 nm wavelength.

[8] = test system: K. pneumoniae [ATCC13883]; experiment: Neutropenic thigh infection model in rat; format: in vivo; settings: 10 mg/kg, i.v. bolus, neutropenic rat

| SMILES | IC50 (E. coli topoisomerase IV) [µM] | MIC [1] [µg/mL] | MIC [2] [µg/mL] | MIC [3] [µg/mL] | MIC [4] [µg/mL] | MIC [5] [µg/mL] | IC50 (E. coli DNA gyrase) [µM] | IC50 [6] [µM] | MIC [7] [µg/mL] | MEAN ± SD (Log 10 CFU/g thigh) ([8]; 10 hr post infection) | Mean Log10CFU/g thigh reduction (wrt 2 h PI control: 4.72 Log10CFU/g thigh) ([8]; 10 hr post infection) [Log10CFU/g thigh] | Log 10 CFU/g thigh ([8]; individual animals, thigh harvested 10 hr post infection) |
| --- | --- | --- | --- | --- | --- | --- | --- | --- | --- | --- | --- | --- |
| Cn1c(=O)ccc2ccc(F)c(CCCNC[C@H]3CN(c4cnc5c(n4)NC(=O)CO5)C(=O)O3)c21 [Example 22, (S)-6-(5-(((3-(7-fluoro-1-methyl-2-oxo-1,2-dihydroquinolin-8-yl)propyl)amino)methyl)-2-oxooxazolidin-3-yl)-2H-pyrazino[2,3-b][1,4]oxazin-3(4H)-one] | 0.019 | 0.03 (≈ 0.0622 µM) | ≤ 0.015 | 0.25 (≈ 0.518 µM) | 0.06 (≈ 0.124 µM) | 0.06 (≈ 0.124 µM) | 0.0032 | 128 | 0.015 (≈ 0.0311 µM) | – | – | – |
| O=C(O)c1cn(C2CC2)c2cc(N3CCNCC3)c(F)cc2c1=O [Ciprofloxacin, reference compound] | – | 0.012 (≈ 0.0362 µM) | 0.4 (≈ 1.21 µM) | 0.1 (≈ 0.302 µM) | 0.05 (≈ 0.151 µM) | 0.4 (≈ 1.21 µM) | – | – | – | 3.28 ± 0.19 | 1.44 | 3.49 Log 10 CFU/g thigh and 3.11 Log 10 CFU/g thigh and 3.25 Log 10 CFU/g thigh |
| O=C1COc2ncc(N3C[C@H](CNCCc4c(F)ccc5ccc(=O)n(CCO)c45)OC3=O)nc2N1 [Example 20, (S)-6-(5-(((2-(7-fluoro-1-(2-hydroxyethyl)-2-oxo-1,2-dihydroquinolin-8-yl)ethyl)amino)methyl)-2-oxooxazolidin-3-yl)-2H-pyrazino[2,3-b][1,4]oxazin-3(4H)-one] | 0.09 | 0.125 (≈ 0.251 µM) | 0.03 (≈ 0.0602 µM) | 0.5 (≈ 1 µM) | 0.5 (≈ 1 µM) | 0.125 (≈ 0.251 µM) | 0.0106 | > 300 | 2 (≈ 4.01 µM) | – | – | – |
| Cn1c(=O)cnc2ccc(F)c(CCNC[C@@H]3CN(c4ccc5c(n4)NC(=O)CO5)C(=O)O3)c21 [Example 5, (R)-6-(5-(((2-(6-fluoro-4-methyl-3-oxo-3,4-dihydroquinoxalin-5-yl)ethyl)amino)methyl)-2-oxooxazolidin-3-yl)-2H-pyrido[3,2-b][1,4]oxazin-3(4H)-one] | – | 0.06 (≈ 0.128 µM) | 0.015 (≈ 0.032 µM) | 1 (≈ 2.13 µM) | 0.125 (≈ 0.267 µM) | 0.25 (≈ 0.534 µM) | – | 14 | 0.03 (≈ 0.064 µM) | – | – | – |
| Cn1c(=O)ccc2ccc(F)c(CCNC[C@H]3CN(c4ncc5c(n4)NC(=O)CO5)C(=O)O3)c21 [Example 16, (S)-2-(5-(((2-(7-fluoro-1-methyl-2-oxo-1,2-dihydroquinolin-8-yl)ethyl)amino)methyl)-2-oxooxazolidin-3-yl)-6H-pyrimido[5,4-b][1,4]oxazin-7(8H)-one] | 0.112 | 0.06 (≈ 0.128 µM) | 0.06 (≈ 0.128 µM) | 1 (≈ 2.13 µM) | 0.25 (≈ 0.534 µM) | 0.25 (≈ 0.534 µM) | 0.041 | 204 | 0.25 (≈ 0.534 µM) | – | – | – |
| Cn1c(=O)ccc2ccc(F)c(CCCNC[C@@H]3CN(c4cnc5c(n4)NC(=O)CO5)C(=O)O3)c21 [Example 23, (R)-6-(5-(((3-(7-fluoro-1-methyl-2-oxo-1,2-dihydroquinolin-8-yl)propyl)amino)methyl)-2-oxooxazolidin-3-yl)-2H-pyrazino[2,3-b][1,4]oxazin-3(4H)-one] | 0.037 | 0.03 (≈ 0.0622 µM) | 0.015 (≈ 0.0311 µM) | 0.25 (≈ 0.518 µM) | 0.03 (≈ 0.0622 µM) | 0.06 (≈ 0.124 µM) | 0.0049 | 35 | 0.015 (≈ 0.0311 µM) | – | – | – |
| Cn1c(=O)ccc2ccc(F)c(CCNC[C@@H]3CN(c4cnc5c(n4)NC(=O)CO5)C(=O)O3)c21 [Example 14, (R)-6-(5-(((2-(7-fluoro-1-methyl-2-oxo-1,2-dihydroquinolin-8-yl)ethyl)amino)methyl)-2-oxooxazolidin-3-yl)-2H-pyrazino[2,3-b][1,4]oxazin-3(4H)-one] | 0.052 | 0.06 (≈ 0.128 µM) | ≤ 0.015 | 0.5 (≈ 1.07 µM) | 0.06 (≈ 0.128 µM) | 0.06 (≈ 0.128 µM) | 0.013 | 41 | 0.25 (≈ 0.534 µM) | – | – | – |
| Cn1c(=O)ccc2ccc(F)c(C[C@H](O)CNC[C@H]3CN(c4ccc5c(n4)NC(=O)CO5)C(=O)O3)c21 (single isomer, unassigned) [Example 18] | 0.024 | 0.125 (≈ 0.251 µM) | 0.125 (≈ 0.251 µM) | 1 (≈ 2.01 µM) | 0.125 (≈ 0.251 µM) | 0.5 (≈ 1.01 µM) | 0.013 | 237 | 0.5 (≈ 1.01 µM) | – | – | – |
